What is called IC50 is the concentration at which inhibition is half-maximal. The CC50 is the concentration giving 50% cytotoxicity. High values mean better tolerance by the cells, low ones harm at low concentration.

Assay type in all cases: cell-based
For data set [1], the system named is HBeAg. The experiment in a line: PHH HBV natural infection assay, HBeAg (alphalisa). Particulars: Hepatitis B virus, Hepatocyte, read-out: HBeAg IC50. The essentials:
(§1)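 Primary human hepatocytes infected with HBV at 200 GE/cell plus 4% PEG8000 for 24 h, then sandwich-cultured 72 h in medium with 1% DMSO. Compound applied twice at 72-h intervals; supernatant HBsAg and HBeAg quantified by AlphaLISA.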
(In general: Alpha assays give light when donor and acceptor beads are brought close together.)

Data set [2] is described as follows: Cytotoxicity in PHH natural infection assay (Cell Counting Kit-8). Particulars: HBV-infected primary human hepatocytes, CCK8. The procedure, abridged:
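HBV-infected primary human hepatocytes (200 GE/cell, 4% PEG8000, 24 h), then sandwich-cultured 72 h. Cells dosed at varying concentrations for two 72-hour cycles, with medium refreshed. Cytotoxicity read by CCK-8 at end of treatment.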

For data set [3], the system named is HBsAg. In words: PHH HBV natural infection assay, HBsAg (alphalisa). The note with it: Hepatitis B virus, Hepatocyte, read-out: HBsAg IC50. The procedure, abridged:
as §1

Structures are written as SMILES.

In the case of `O=C(NC1CCC2(CC1)CCN(c1nc3cc(Cl)ccc3o1)CC2)[C@@H]1CCS(=O)(=O)C1` [Example 91, (3S)—N-[3-(5-chloro-1,3-benzoxazol-2-yl)-3-azaspiro[5.5]undecan-9-yl]-1,1-dioxo-thiolane-3-carboxamide], the values for the IC50 in data set [1] and in data set [3] were 0.676 µM and 1.12 µM, respectively. Half-maximal cytotoxicity in data set [2] (CC50 at 144 h) was put at 89.2 µM.

Regarding `O=C(NC1CCC2(CC1)CCN(c1nc3cc(Cl)ccc3o1)CC2)[C@H]1CCS(=O)(=O)C1` [Example 92, (3R)—N-[3-(5-chloro-1,3-benzoxazol-2-yl)-3-azaspiro[5.5]undecan-9-yl]-1,1-dioxo-thiolane-3-carboxamide], the IC50 in data set [1] came to 0.75 µM; in data set [3] it was 0.857 µM. Besides, the midpoint of cytotoxicity in data set [2], the CC50 at 144 h, lay at 83.9 µM.

For `CC1(C(=O)NC2CCC3(CC2)CCN(c2nc4cc(Cl)ccc4o2)CC3)CCS(=O)(=O)C1` (stereo not drawn) [Example 93, N-[3-(5-chloro-1,3-benzoxazol-2-yl)-3-azaspiro[5.5]undecan-9-yl]-3-methyl-1,1-dioxo-thiolane-3-carboxamide], the IC50 in data set [1] amounted to 1.19 µM; in data set [3], 1.82 µM. This compound yielded a CC50 at 144 h in data set [2] greater than 100 µM.

On to `O=C(NC1CCC2(CC1)CCN(c1nc3ccc(Cl)cc3o1)CC2)C1CCS(=O)(=O)C1` (stereo not drawn) [Example 94, N-[3-(6-chloro-1,3-benzoxazol-2-yl)-3-azaspiro[5.5]undecan-9-yl]-1,1-dioxo-thiolane-3-carboxamide], for which the figures for the IC50 in data set [1] and in data set [3] were 1.4 µM and 1.73 µM, respectively. Besides, half-maximal cytotoxicity in data set [2] (CC50 at 144 h) was put at 90.6 µM.

With `O=C(NC1CCC2(CC1)CCN(c1nc3cc(Cl)ccc3o1)CC2)C1CC2(C1)CS(=O)(=O)C2` [Example 95, N-[3-(5-chloro-1,3-benzoxazol-2-yl)-3-azaspiro[5.5]undecan-9-yl]-2,2-dioxo-2-λ^6-thiaspiro[3.3]heptane-6-carboxamide], the figures for the IC50 in data set [1] and in data set [3] were 3.62 µM and 1.67 µM, respectively. This compound also gave a CC50 at 144 h in data set [2] greater than 100 µM.

In the case of `O=C(NC1CCC2(CC1)CCN(c1nc3cc(Cl)ccc3o1)CC2)C1CCS(=O)(=O)CC1` [Example 96, N-[3-(5-chloro-1,3-benzoxazol-2-yl)-3-azaspiro[5.5]undecan-9-yl]-1,1-dioxo-thiane-4-carboxamide], the half-inhibitory concentration (IC50) turned out to be 0.727 µM in data set [1] and 0.957 µM in data set [3]. Moreover, it took 93.6 µM to reach half-maximal cytotoxicity in data set [2] (CC50 at 144 h).

Consider `O=C(NC1CCC2(CC1)CCN(c1nc3ccc(Cl)cc3o1)CC2)C1CCS(=O)(=O)CC1` [Example 97, N-[3-(6-chloro-1,3-benzoxazol-2-yl)-3-azaspiro[5.5]undecan-9-yl]-1,1-dioxo-thiane-4-carboxamide], for which the IC50 in data set [1] is 2.48 µM; in data set [3], 3.52 µM. The compound also showed a CC50 at 144 h in data set [2] greater than 100 µM.

Consider `CC1(C(=O)NC2CCC3(CC2)CCN(c2nc4cc(Cl)ccc4o2)CC3)CC[S+]([O-])CC1` (stereo not drawn) [Example 98, N-[3-(5-chloro-1,3-benzoxazol-2-yl)-3-azaspiro[5.5]undecan-9-yl]-4-methyl-1-oxo-thiane-4-carboxamide], for which the IC50 worked out at 2.23 µM in data set [1] and 4.23 µM in data set [3]. Also, the CC50 at 144 h in data set [2] is greater than 100 µM.

With `CC1(C(=O)NC2CCC3(CC2)CCN(c2nc4cc(Cl)ccc4o2)CC3)CCS(=O)(=O)CC1` [Example 99, N-[3-(5-chloro-1,3-benzoxazol-2-yl)-3-azaspiro[5.5]undecan-9-yl]-4-methyl-1,1-dioxo-thiane-4-carboxamide], the IC50 in data set [1] was determined as 2.02 µM; in data set [3] it was 2.63 µM. In addition, in data set [2], half-maximal cytotoxicity (CC50 at 144 h) was put at 94.1 µM.

Regarding `O=C(NC1CCC2(CC1)CCN(c1nc3cc(Cl)ccc3o1)CC2)C1CCCS(=O)(=O)C1` (stereo not drawn) [Example 100, N-[3-(5-chloro-1,3-benzoxazol-2-yl)-3-azaspiro[5.5]undecan-9-yl]-1,1-dioxo-thiane-3-carboxamide], the results for the IC50 in data set [1] and in data set [3] were 1.72 µM and 2.44 µM, respectively. This compound gave a CC50 at 144 h in data set [2] greater than 100 µM.

For `O=C(NC1CCC2(CC1)CCN(c1nc3cc(Cl)ccc3o1)CC2)C1CCC(F)(F)C1` (stereo not drawn) [Example 101, N-[3-(5-chloro-1,3-benzoxazol-2-yl)-3-azaspiro[5.5]undecan-9-yl]-3,3-difluoro-cyclopentanecarboxamide], the IC50 in data set [1] came to 4.29 µM; in data set [3] it was 4.16 µM. Besides, the CC50 at 144 h in data set [2] was greater than 100 µM.

Consider `O=C(NC1CCC2(CC1)CCN(c1nc3cc(Cl)ccc3o1)CC2)C1CCC(F)(F)CC1` [Example 102, N-[3-(5-chloro-1,3-benzoxazol-2-yl)-3-azaspiro[5.5]undecan-9-yl]-4,4-difluoro-cyclohexanecarboxamide], for which the IC50 in data set [1] was 3.77 µM; in data set [3], 3.6 µM. The CC50 at 144 h in data set [2] was greater than 100 µM.

Regarding `CC[S+]([O-])c1ccc(C(=O)NC2CCC3(CC2)CCN(c2nc4cc(Cl)ccc4o2)CC3)o1` (stereo not drawn) [Example 103, N-[3-(5-chloro-1,3-benzoxazol-2-yl)-3-azaspiro[5.5]undecan-9-yl]-5-ethylsulfinyl-furan-2-carboxamide], the IC50 stood at 1.85 µM in data set [1] and 1.35 µM in data set [3]. The compound also displayed a CC50 at 144 h in data set [2] of 72.7 µM.

`O=C(NC1CCC2(CC1)CCN(c1nc3cc(Cl)ccc3o1)CC2)c1ccc([S+]([O-])CC2CC2)o1` (stereo not drawn) [Example 104, N-[3-(5-chloro-1,3-benzoxazol-2-yl)-3-azaspiro[5.5]undecan-9-yl]-5-(cyclopropylmethylsulfinyl)furan-2-carboxamide]: the IC50 in data set [1] is 0.996 µM; in data set [3] it was 1.16 µM. The compound further registered a CC50 at 144 h in data set [2] of 94.8 µM.

With `O=C(NC1CCC2(CC1)CCN(c1nc3cc(Cl)ccc3o1)CC2)c1ccnc(C(F)(F)F)c1` [Example 105, N-[3-(5-chloro-1,3-benzoxazol-2-yl)-3-azaspiro[5.5]undecan-9-yl]-2-(trifluoromethyl)pyridine-4-carboxamide], the values for the IC50 in data set [1] and in data set [3] were 1.03 µM and 1.12 µM, respectively. Besides, half-maximal cytotoxicity in data set [2] (CC50 at 144 h) was put at 59 µM.

Take `COc1cc(C(=O)NC2CCC3(CC2)CCN(c2nc4cc(Cl)ccc4o2)CC3)ccn1` [Example 106, N-[3-(5-chloro-1,3-benzoxazol-2-yl)-3-azaspiro[5.5]undecan-9-yl]-2-methoxy-pyridine-4-carboxamide]: the IC50 is 0.48 µM in data set [1] and 0.59 µM in data set [3]. The compound also showed a CC50 at 144 h in data set [2] greater than 100 µM.

Take `Cc1cc(C(=O)NC2CCC3(CC2)CCN(c2nc4cc(Cl)ccc4o2)CC3)ccn1` [Example 107, N-[3-(5-chloro-1,3-benzoxazol-2-yl)-3-azaspiro[5.5]undecan-9-yl]-2-methyl-pyridine-4-carboxamide]: the results for the IC50 in data set [1] and in data set [3] were 0.427 µM and 0.496 µM, respectively. The CC50 at 144 h in data set [2] is greater than 100 µM.

`NS(=O)(=O)c1ccc(C(=O)NC2CCC3(CC2)CCN(c2nc4cc(Cl)ccc4o2)CC3)o1` [Example 108, N-[3-(5-chloro-1,3-benzoxazol-2-yl)-3-azaspiro[5.5]undecan-9-yl]-5-sulfamoyl-furan-2-carboxamide]: the IC50 was determined as 4.18 µM in data set [1] and 6.69 µM in data set [3]. Moreover, the CC50 at 144 h in data set [2] is greater than 10 µM.

Turning to `CS(=N)(=O)c1ccc(C(=O)NC2CCC3(CC2)CCN(c2nc4cc(Cl)ccc4o2)CC3)o1` (stereo not drawn) [Example 109, N-[3-(5-chloro-1,3-benzoxazol-2-yl)-3-azaspiro[5.5]undecan-9-yl]-5-(methylsulfonimidoyl)furan-2-carboxamide], the values for the IC50 in data set [1] and in data set [3] were 4.66 µM and 5.88 µM, respectively. In data set [2], the CC50 at 144 h was greater than 100 µM.

As to `O=C(NC1CCC2(CC1)CCN(c1nc3ccccc3o1)CC2)c1ccnc(S(=O)(=O)C2CC2)c1` [Example 110, N-[3-(1,3-benzoxazol-2-yl)-3-azaspiro[5.5]undecan-9-yl]-2-cyclopropylsulfonyl-pyridine-4-carboxamide], the IC50 came to 5.58 µM in data set [1] and 5.84 µM in data set [3]. Also, in data set [2], the CC50 at 144 h is greater than 10 µM.

For `O=C(NC1CCC2(CC1)CCN(c1nc3cc(Cl)ccc3o1)CC2)c1ccc(S(=O)(=O)NC(=O)C2CCC2)o1` [Example 111, N-[3-(5-chloro-1,3-benzoxazol-2-yl)-3-azaspiro[5.5]undecan-9-yl]-5-(cyclobutanecarbonylsulfamoyl)furan-2-carboxamide], the IC50 in data set [1] is 3.47 µM; in data set [3], 5.45 µM. It took 85.7 µM to reach half-maximal cytotoxicity in data set [2] (CC50 at 144 h).

`CS(=O)(=O)Cc1ccc(C(=O)NC2CCC3(CC2)CCN(c2nc4cc(Cl)ccc4o2)CC3)o1` [Example 112, N-[3-(5-chloro-1,3-benzoxazol-2-yl)-3-azaspiro[5.5]undecan-9-yl]-5-(methylsulfonylmethyl)furan-2-carboxamide]: the IC50 in data set [1] was determined as 4.24 µM; in data set [3], 3.68 µM. In addition, the CC50 at 144 h in data set [2] was greater than 10 µM.

For the compound `CS(=O)(=O)c1ccc(C(=O)NC2CCC3(CC2)CCN(c2nc4cc(Cl)ccc4o2)CC3)o1` [Example 113, N-[3-(5-chloro-1,3-benzoxazol-2-yl)-3-azaspiro[5.5]undecan-9-yl]-5-methylsulfonyl-furan-2-carboxamide], the IC50 in data set [1] was found to be 3.27 µM; in data set [3] it was 3.59 µM. In data set [2], the CC50 at 144 h was greater than 100 µM.

On to `CCS(=N)(=O)c1ccc(C(=O)NC2CCC3(CC2)CCN(c2nc4cc(Cl)ccc4o2)CC3)o1` (stereo not drawn) [Example 114, N-[3-(5-chloro-1,3-benzoxazol-2-yl)-3-azaspiro[5.5]undecan-9-yl]-5-(ethylsulfonimidoyl)furan-2-carboxamide], for which the IC50 amounted to 3.1 µM in data set [1] and 3.54 µM in data set [3]. Moreover, the CC50 at 144 h in data set [2] is 93.3 µM.

Consider `O=C(NC1CCC2(CC1)CCN(c1nc3cc(Cl)ccc3o1)CC2)c1ccc(C(F)(F)F)o1` [Example 115, N-[3-(5-chloro-1,3-benzoxazol-2-yl)-3-azaspiro[5.5]undecan-9-yl]-5-(trifluoromethyl)furan-2-carboxamide], for which the IC50 in data set [1] was determined as 2.64 µM; in data set [3], 2.92 µM. This compound came in with a CC50 at 144 h in data set [2] greater than 100 µM.

Values taken from US20230416238A1, “N-[(1,3-BENZOXAZOL-2-YL)-HETEROCYCLE]AMIDE DERIVATIVES FOR THE TREATMENT AND PROPHYLAXIS OF HEPATITIS B VIRUS INFECTION” (Hoffmann-La Roche Inc., priority 2020, published 2023).
